# Values of other authors as cited in patent EP0540813B1, “Sustained release formulations of acetazolamide” (AMERICAN CYANAMID COMPANY, priority 1991, dated 1993).
# Conditions: reported in the literature
structure (smiles),measurement,value
"CC(=O)Nc1nnc(S(N)(=O)=O)s1 [acetazolamide, N-(5-sulphamoyl-1,3,4-thiadiazol-2-yl)acetamide]",plasma levels considered toxic,above 30 µg/ml
same,therapeutic plasma range,5 to 10 µg/mL
